These results are taken from BindingDB's records for doi:10.1080/14756360400004565 (Universit&Eacute, 2004).

As a reminder, the IC50 is the point on the concentration scale where inhibition reaches its midpoint.

The test concerns the target Glycogen synthase kinase-3 beta (Homo sapiens, UniProt P49841). Briefly: Kinase Assay. As for the experimental part:
Kinase activities were assayed according to the methodology developed by the Cell Cycle Group of the Station Biologique (CNRS).

Chain of Glycogen synthase kinase-3 beta (P49841 whole entry): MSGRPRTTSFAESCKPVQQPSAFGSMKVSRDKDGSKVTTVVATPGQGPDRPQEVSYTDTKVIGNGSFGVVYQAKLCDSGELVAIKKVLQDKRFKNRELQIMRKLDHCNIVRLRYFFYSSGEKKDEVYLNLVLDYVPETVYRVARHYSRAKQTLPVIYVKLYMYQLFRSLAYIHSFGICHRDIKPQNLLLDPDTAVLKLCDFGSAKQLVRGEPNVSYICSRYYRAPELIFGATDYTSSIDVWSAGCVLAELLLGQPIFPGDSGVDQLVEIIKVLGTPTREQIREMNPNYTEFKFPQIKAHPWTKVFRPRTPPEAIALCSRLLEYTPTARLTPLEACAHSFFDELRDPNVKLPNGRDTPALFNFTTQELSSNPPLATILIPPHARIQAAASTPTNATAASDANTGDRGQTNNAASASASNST

As for `COc1ccc(-c2csc3c2-n2cccc2C3=O)cc1OCc1ccccc1`, the IC50 was over 50 µM.
The value for `COc1ccc(-c2csc3c2-n2cccc2C3=O)cc1O` [MR-22388] was 1.5 µM.
The same measure for `Cc1ccc(-c2csc3c2-n2cccc2C3=O)cc1` [Thienopyrrolizine derivative, 4a]: over 50 µM.
The value for `COc1cccc(-c2csc3c2-n2cccc2C3=O)c1` [Thienopyrrolizine derivative, 4b] was over 50 µM.
For the compound `CCOc1ccc(-c2csc3c2-n2cccc2C3=O)cc1` [Thienopyrrolizine derivative, 4c], the IC50 was over 50 µM.
The value for `CC(=O)Oc1ccc(-c2csc3c2-n2cccc2C3=O)cc1OC(C)=O` [Thienopyrrolizine derivative, 4h] was over 50 µM; that for `CCC(=O)Oc1ccc(-c2csc3c2-n2cccc2C3=O)cc1OC(=O)CC` [Thienopyrrolizine derivative, 4i] was over 50 µM; that for `COc1ccc(-c2csc3c2-n2cccc2C3=O)cc1OC(C)=O` [Thienopyrrolizine derivative, 4k] was over 50 µM.
On to `CCOC(=O)Oc1cc(-c2csc3c2-n2cccc2C3=O)ccc1OC` [Thienopyrrolizine derivative, 4l], for which the IC50 was over 50 µM.
The same measure for `COc1ccc(-c2csc3c2-n2cccc2C3=O)cc1OC(=O)C(C)(C)C` [Thienopyrrolizine derivative, 4m]: over 50 µM; for `COc1ccc(-c2csc3c2-n2cccc2C3=O)cc1OC(=O)CCCC(=O)O` [Thienopyrrolizine derivative, 4n]: 11 µM; for `O=C1c2cscc2-n2cccc21` [Thienopyrrolizine derivative, 5]: over 50 µM.
The same measure for `COc1ccc(-c2csc3c2-n2cccc2C3O)cc1OCc1ccccc1` (centres undefined) [Thienopyrrolizine derivative, 13e]: over 50 µM; for `COc1ccc(-c2csc3c2-n2cccc2C3O)cc1O` (centres undefined) [Thienopyrrolizine derivative, 13g]: 19 µM.
